According to patent publication US6846845B2, “Heat shock protein inducer” (Eisai Co., Ltd., priority 2002, dated 2005):

Experiments:
Type in all cases: in vivo, rat
HSP27 = HSP27 induction in the heart after oral administration (Western blotting); conditions: oral 200 mg/kg, 24 hours after administration, FIG. 3(A)
Procedure: (§1) An emulsion of 100% by weight of geranylgeranylacetone (GGA) with 5% by weight of gum arabic and 0.008% by weight of tocopherol was given orally to the rats described above. The oral dosages were 50 mg/kg, 100 mg/kg, 200 mg/kg and 400 mg/kg (GGA groups). […] The vehicle was administered orally to the Control Group.
(§2) Next, the hearts were removed from the killed rats and frozen in liquid nitrogen.
(§3) Western blotting was then performed (Maloyan A, Palmon A, Horowitz M. Heat acclimation increases the basal HSP70 level and alters its production dynamics during heat stress. Am J Physiol 1999; 276:R1506-R1515). The frozen hearts were homogenized with SDS (sodium dodecyl sulfate) buffer, centrifuged and boiled.
(§4) The total protein concentration of the myocardium was quantified by the Bradford method (Bradford M M. A rapid and sensitive method for quantitation of microgram quantities of protein utilizing the principle of protein-dye binding. Anal Biochem 1976; 72:248-254). The prepared hearts were then diluted in electrolyte buffer. […] The proteins were detected by exposing the ECL cells with Hyperfilm (Amersham Pharmacia, Buckinghamshire, UK). Based on this, the amount of proteins on the immunoblots was quantified using National Institutes of Health (NIH) imaging software. […]

HSP60 = HSP60 induction in the heart after oral administration (Western blotting); conditions: oral 200 mg/kg, 24 hours after administration, FIG. 3(B)
Procedure: as §1, §2, §3, §4

PKC (α, β, γ and ε) = experiment: Translocation of PKC isoforms α, β, γ and ε in particulate and cytosolic heart fractions (Western immunoblotting); conditions: 24 h after GGA 200 mg/kg oral or vehicle; chelerythrine 5 mg/kg i.v. pretreatment, FIG. 10
PKCδ = experiment: Translocation of PKCδ in particulate and cytosolic heart fractions (Western immunoblotting); conditions: 24 h after GGA 200 mg/kg oral or vehicle; chelerythrine 5 mg/kg i.v. pretreatment, FIG. 10
iNOS = iNOS induction in the heart after oral administration (Western blotting); conditions: oral 200 mg/kg, 24 hours after administration, FIG. 4(A)
Description: Monoclonal IgG antibody cross-reactive to HSP70, HSP60 and HSP27 antibodies was purchased from Stressgen Biotechnologies Corporation ([…], Canada). Primary antibodies of nitric oxide synthase (NOS) or in other words inducible NOS (iNOS), endothelial NOS (eNOS) and neuronal NOS (nNOS) were purchased from Transduction Laboratories (Lexington, Ky.). The primary antibody of thioredoxin was kindly provided by Professor Yodoi of Kyoto University.
as §1
Next, the hearts were removed from the killed rats and frozen in liquid nitrogen. […]
The total protein concentration of the myocardium was quantified by the Bradford method (Bradford M M. A rapid and sensitive method for quantitation of microgram quantities of protein utilizing the principle of protein-dye binding. Anal Biochem 1976; 72:248-254). […] The proteins were detected by exposing the ECL cells with Hyperfilm (Amersham Pharmacia, Buckinghamshire, UK). Based on this, the amount of proteins on the immunoblots was quantified using National Institutes of Health (NIH) imaging software. […]

HSP70 = HSP70 induction in the heart after oral administration (Western blotting), Example 1
Procedure: Male Sprague-Dawley rats (220-250 g) were anesthetized with pentobarbital (20 mg/kg, i.p.). They were subjected to whole-body hyperthermia by soaking for 10 minutes in a bath in which the water temperature was maintained at 43° C. (Heat Stress Group), with their heads on pillows to avoid aspiration of water. rectal temperatures were measured as body temperatures rose throughout the whole-body hyperthermia.
as §1
To examine the time-dependent expression of HSP70, rats were killed by deep anesthesia with pentobarbital (50 mg/kg, i.v.) 6, 12, 24 and 48 hours after administration of the GGA or vehicle or 6, 12, 24 and 48 hours after heat stress.
as §2, §3
The total protein concentration of the myocardium was quantified by the Bradford method (Bradford M M. A rapid and sensitive method for quantitation of microgram quantities of protein utilizing the principle of protein-dye binding. Anal Biochem 1976; 72:248-254). The prepared hearts were then diluted in electrolyte buffer. Total protein in each heart was subjected to electrophoresis on 8.5% SDS-Polyacrylamide gel (SDS-PAGE), and transferred to a PVDF (polyvinylidene fluoride) membrane. After blocking with 0.5% nonfat milk, the PVDF membranes were incubated with antibodies. The proteins were detected by exposing the ECL cells with Hyperfilm (Amersham Pharmacia, Buckinghamshire, UK). Based on this, the amount of proteins on the immunoblots was quantified using National Institutes of Health (NIH) imaging software.

[1] = oral, 24 hours after administration, FIG. 2

CC(=O)CCC=C(C)CCC=C(C)CCC=C(C)CCC=C(C)C [GGA, 6, 10, 14, 18-tetramethyl-5,9, 13, 17-nonadecatetraen-2-one]
HSP27 expression versus vehicle (HSP27): no obvious difference
HSP60 expression versus control group (HSP60): significantly decreased
PKC isoforms α, β, γ and ε in cytosolic and particulate fractions (PKC (α, β, γ and ε)): not influenced
PKCδ in the particulate fraction / particulate/cytosol ratio versus CNT group (PKCδ): significant increase
iNOS induction in the heart (iNOS): neither iNOS nor eNOS was induced
detected (induced) amount of HSP70 in the heart versus dosage (HSP70; oral 0-400 mg/kg, hearts removed 24 hours after administration, FIG. 2): increased as the dosage increased
detected amount of HSP70 in the heart after 48 hours (HSP70; oral 200 mg/kg, 48 hours after administration, FIG. 1): decreased
time at which the detected (induced) amount of HSP70 peaked (HSP70; oral 200 mg/kg, FIG. 1): 24 h
time from which HSP70 was detected in the heart (HSP70; oral 200 mg/kg, FIG. 1): about 6 hours
detected amount of HSP70 above 400 mg/kg (HSP70; [1]): No increase in detected amount was seen
dosage at which HSP70 induction peaked (HSP70; [1]): 200 mg/kg
